Assay results from article PMC5469811, “Identification of GXXXXG motif in Chrysophsin-1 and its implication in the design of analogs with cell-selective antimicrobial and anti-endotoxin activities” (Scientific Reports, 2017).
Converted amounts (≈) assume the structure as drawn. Residues, ends and D or L forms follow the SMILES beside them.

How the values were obtained:
E. coli ATCC 25922 [1] = assay: Synergy with conventional antibiotics, checkerboard titration; assay type: cell-based, Escherichia coli
Protocol: The checkerboard titration method was followed to check the synergy of peptides with other antibiotics. First, 2-fold serial dilutions of the antibiotics and antimicrobial peptides were prepared. Subsequently, 50 μl each of different concentrations of antibiotics and of antimicrobial peptides was mixed and added into 100 μl of log phase bacteria culture in a 96-well plate. The plates were then incubated at 37 °C for 24 h. The fractional inhibitory concentration (FIC) index (FICI) was calculated as follows[39]: FICI=(MICofdrugAincombination)/(MICofdrugAalone)+(MICofdrugBincombination)/(MICofdrugB): FICI < 0.5 is considered to indicate synergy; 0.5 < FICI < 1.0 is considered additive; 1.0 < FICI < 4.0 is considered indifferent; and FICI > 4.0 is considered antagonism.

S. aureus (ATCC 25923) = assay type: cell-based, Staphylococcus aureus; details: ATCC 25923, 1 h
Protocol: (§1) E. coli ATCC25922 was grown to 10^6 CFU/ml in fresh MH broth with various divalent and monovalent salts at their physiological concentrations. Serial dilutions of chrysophsin-1 and its variants prepared with the same MH broth were added to the E. coli ATCC 25922 suspensions. The bacteria were incubated at 37 °C in a shaking incubator for 18 h and the MIC values of individual peptides against E. coli ATCC 25922 were determined. Thermal tolerance of Chrysophsin-1 and its variants was checked by incubating the peptides at 4 °C, 60 °C and 90 °C for 1 h prior to MIC determination. The antibacterial activity in presence of serum was carried out by adding a final concentration of 10% fetal bovine serum in the assay diluents containing 0.4% BSA, 0.02% glacial acetic acid. The subsequent steps in both the experiments were consistent with the MIC determination method.

[2] = tested on: Sporothrix schenckii (Patient isolates); assay: microbe, parasite or virus in culture; assay type: cell-based; details: 48 h; read-out: Minimum inhibitory concentration (MIC)
[3] = tested on: Klebsiella pneumoniae (ATCC 27736); assay: microbe, parasite or virus in culture; assay type: cell-based; details: ATCC 27736; read-out: Minimum inhibitory concentration (MIC)
Protocol: (§2) Antibacterial assay against various Gram-positive and Gram-negative strains of bacteria was performed by the serial two-fold dilution method according to the previously reported procedure, [36]. The antibacterial assays were repeated thrice and the averages of these MIC values were reported.

[4] = tested on: Staphylococcus aureus (ATCC 700699 MRSA); assay: microbe, parasite or virus in culture; assay type: cell-based; details: ATCC 700699; read-out: Minimum inhibitory concentration (MIC)
Protocol: as §2

[5] = tested on: Staphylococcus aureus (ATCC 25923); assay: microbe, parasite or virus in culture; assay type: cell-based; details: ATCC 25923; read-out: Minimum inhibitory concentration (MIC)
Protocol: as §2

[6] = tested on: Escherichia coli (ATCC 25922); assay: microbe, parasite or virus in culture; assay type: cell-based; details: ATCC 25922; read-out: Minimum inhibitory concentration (MIC)
Protocol: as §2

[7] = tested on: Staphylococcus aureus (ATCC 29213); assay: microbe, parasite or virus in culture; assay type: cell-based; details: ATCC 29213; read-out: Minimum inhibitory concentration (MIC)
Protocol: as §2

[8] = tested on: Staphylococcus aureus (ATCC 33592) Methicillin resistant Genatmicin resistant; assay: microbe, parasite or virus in culture; assay type: cell-based; details: ATCC 33592; read-out: Minimum inhibitory concentration (MIC)
Protocol: as §2

[9] = tested on: Pseudomonas aeruginosa (ATCC BAA-427); assay: microbe, parasite or virus in culture; assay type: cell-based; details: ATCC BAA-427; read-out: Minimum inhibitory concentration (MIC)
Protocol: as §2

[10] = tested on: Bacillus subtilis (ATCC 6633); assay: microbe, parasite or virus in culture; assay type: cell-based; details: ATCC 6633; read-out: Minimum inhibitory concentration (MIC)
Protocol: as §2

[11] = tested on: Staphylococcus aureus (BAA-44)MDR; assay: microbe, parasite or virus in culture; assay type: cell-based; details: BAA-44; read-out: Minimum inhibitory concentration (MIC)
Protocol: as §2

[12] = tested on: Staphylococcus aureus (ATCC 700698 MRSA); assay: microbe, parasite or virus in culture; assay type: cell-based; details: ATCC 700698; read-out: Minimum inhibitory concentration (MIC)
Protocol: as §2

[13] = tested on: Escherichia coli (ATCC 9637); assay: microbe, parasite or virus in culture; assay type: cell-based; details: ATCC 9637; read-out: Minimum inhibitory concentration (MIC)
Protocol: as §2

Cryptococcus neoformans = assay: microbe, parasite or virus in culture; assay type: cell-based; details: 72 h; read-out: Minimum inhibitory concentration (MIC)
Protocol: (§3) The anti- fungal activity of peptides was performed according to the standard micro broth dilution technique as per NCCLS guidelines. These plates were incubated in a moist chamber at 35 °C, and an absorbance at 492 nm was recorded on a VersaMax microplate reader after 48 h for C. albicans ATCC 10231 and C. parapsilosis ATCC 22019 and 72 h for C. neoformans.

[14] = tested on: Candida albicans (ATCC 10231); assay: microbe, parasite or virus in culture; assay type: cell-based; details: ATCC 10231, 48 h; read-out: Minimum inhibitory concentration (MIC)
Protocol: as §3

[15] = tested on: Candida parapsilosis (ATCC 22019); assay: microbe, parasite or virus in culture; assay type: cell-based; details: ATCC 22019, 48 h; read-out: Minimum inhibitory concentration (MIC)
Protocol: as §3

E. coli (ATCC 25922) = assay type: cell-based, Escherichia coli; details: ATCC 25922, 1 h
Protocol: as §1

E. coli ATCC 25922 [16] = assay type: cell-based, Escherichia coli; details: ATCC 25922, 18 h
Protocol: as §1

SMILES | interaction of peptide with chloramphenicol (by FICI) (E. coli ATCC 25922 [1]) | Antibacterial activity (MIC) after incubating peptide at 4 °C (S. aureus (ATCC 25923)) | Antibacterial activity (MIC) after incubating peptide at 60 °C (S. aureus (ATCC 25923)) | Antibacterial activity (MIC) after incubating peptide at 90 °C (S. aureus (ATCC 25923)) | MIC [2] | MIC [3] | MIC [4] | MIC [5] | MIC [6] | MIC [7] | MIC [8] | MIC [9] | MIC [10] | MIC [11] | MIC [12] | MIC [13] | MIC (Cryptococcus neoformans) | MIC [14] | MIC [15] | Antibacterial activity (MIC) after incubating peptide at 4 °C (E. coli (ATCC 25922)) | also measured
CC[C@H](C)[C@H](NC(=O)[C@H](C)NC(=O)CNC(=O)[C@H](CCCCN)NC(=O)[C@@H](NC(=O)[C@H](CC(C)C)NC(=O)[C@H](Cc1c[nH]c2ccccc12)NC(=O)CNC(=O)[C@H](Cc1ccccc1)NC(=O)[C@@H](N)Cc1ccccc1)[C@@H](C)CC)C(=O)N[C@@H](Cc1c[nH]cn1)C(=O)N[C@@H](C)C(=O)N1CCC[C@H]1C(=O)N[C@@H](CCCCN)C(=O)N[C@@H](C)C(=O)N[C@H](C(=O)N[C@@H](Cc1c[nH]cn1)C(=O)N1CCC[C@H]1C(=O)N[C@@H](CC(C)C)C(=O)N[C@H](C(=O)N[C@@H](Cc1c[nH]cn1)C(=O)N[C@@H](CCCNC(=N)N)C(=O)N[C@@H](CCCNC(=N)N)C(=O)N[C@@H](CCCNC(=N)N)C(=O)N[C@@H](Cc1c[nH]cn1)C(N)=O)[C@@H](C)CC)[C@@H](C)CC [G13,18P-Chr-1] (H-FFGWLIKGAIHAPKAIHPLIHRRRH-NH2; N-terminus and C-terminus assumed) | additivity | 3 µM | >33 µM | >33 µM | >30 µM | 27.2 µM (≈ 80.8 µg/mL) | 3 µM (≈ 8.91 µg/mL) | 3 µM (≈ 8.91 µg/mL) | 4 µM (≈ 11.9 µg/mL) | 3 µM (≈ 8.91 µg/mL) | 1.6 µM (≈ 4.75 µg/mL) | 13.6 µM (≈ 40.4 µg/mL) | 3 µM (≈ 8.91 µg/mL) | 3 µM (≈ 8.91 µg/mL) | 3 µM (≈ 8.91 µg/mL) | 6.8 µM (≈ 20.2 µg/mL) | >30 µM | >30 µM | >30 µM | 4 µM | Antibacterial activity (MIC) after incubating peptide at 60 °C (E. coli (ATCC 25922)): 14 µM; Antibacterial activity (MIC) after incubating peptide at 90 °C (E. coli (ATCC 25922)): 17.2 µM; Antibacterial activity (MIC) in the presence of 10% FBS (E. coli ATCC 25922 [16]): >33 µM; Antibacterial activity (MIC) in the presence of FeCl3 (E. coli ATCC 25922 [16]): 26 µM; Antibacterial activity (MIC) in the presence of KCl (E. coli ATCC 25922 [16]): 6 µM; Antibacterial activity (MIC) in the presence of MgCl2 (E. coli ATCC 25922 [16]): 20 µM; Antibacterial activity (MIC) in the presence of NH4Cl (E. coli ATCC 25922 [16]): 5 µM; Antibacterial activity (MIC) in the presence of NaCl (E. coli ATCC 25922 [16]): 20 µM; Antibacterial activity (MIC) in the presence of ZnCl2 (E. coli ATCC 25922 [16]): 12 µM
CC[C@H](C)[C@H](NC(=O)[C@H](C)NC(=O)[C@H](CCCCN)NC(=O)CNC(=O)[C@H](C)NC(=O)[C@H](Cc1c[nH]cn1)NC(=O)[C@@H](NC(=O)[C@H](C)NC(=O)[C@@H]1CCCN1C(=O)[C@H](CCCCN)NC(=O)[C@@H](NC(=O)[C@H](CC(C)C)NC(=O)[C@H](Cc1c[nH]c2ccccc12)NC(=O)CNC(=O)[C@H](Cc1ccccc1)NC(=O)[C@@H](N)Cc1ccccc1)[C@@H](C)CC)[C@@H](C)CC)C(=O)N[C@@H](Cc1c[nH]cn1)C(=O)NCC(=O)N[C@@H](CC(C)C)C(=O)N[C@H](C(=O)N[C@@H](Cc1c[nH]cn1)C(=O)N[C@@H](CCCNC(=N)N)C(=O)N[C@@H](CCCNC(=N)N)C(=O)N[C@@H](CCCNC(=N)N)C(=O)N[C@@H](Cc1c[nH]cn1)C(N)=O)[C@@H](C)CC [Peptide G8P-Chr-1] (H-FFGWLIKPAIHAGKAIHGLIHRRRH-NH2; N-terminus and C-terminus assumed) | synergy (FICI < 0.5 is considered to indicate synergy) | 3 µM | 4.3 µM | 8.6 µM | 13.6 µM (≈ 39.9 µg/mL) | 3.3 µM (≈ 9.67 µg/mL) | 1.6 µM (≈ 4.69 µg/mL) | 3 µM (≈ 8.79 µg/mL) | 4.1 µM (≈ 12 µg/mL) | 1.6 µM (≈ 4.69 µg/mL) | 0.8 µM (≈ 2.35 µg/mL) | 6.8 µM (≈ 19.9 µg/mL) | 3 µM (≈ 8.79 µg/mL) | 1.6 µM (≈ 4.69 µg/mL) | 1.6 µM (≈ 4.69 µg/mL) | 3.3 µM (≈ 9.67 µg/mL) | 6.8 µM (≈ 19.9 µg/mL) | 3 µM (≈ 8.79 µg/mL) | 6.8 µM (≈ 19.9 µg/mL) | 4.1 µM | Antibacterial activity (MIC) after incubating peptide at 60 °C (E. coli (ATCC 25922)): 4.3 µM; Antibacterial activity (MIC) after incubating peptide at 90 °C (E. coli (ATCC 25922)): 8.3 µM; Antibacterial activity (MIC) in the presence of 10% FBS (E. coli ATCC 25922 [16]): 8.6 µM; Antibacterial activity (MIC) in the presence of FeCl3 (E. coli ATCC 25922 [16]): 4.1 µM; Antibacterial activity (MIC) in the presence of KCl (E. coli ATCC 25922 [16]): 4.3 µM; Antibacterial activity (MIC) in the presence of MgCl2 (E. coli ATCC 25922 [16]): 4.3 µM; Antibacterial activity (MIC) in the presence of NH4Cl (E. coli ATCC 25922 [16]): 2.0 µM; Antibacterial activity (MIC) in the presence of NaCl (E. coli ATCC 25922 [16]): 8.6 µM; Antibacterial activity (MIC) in the presence of ZnCl2 (E. coli ATCC 25922 [16]): 2 µM
